Experimental data reported in US9656996B2, “Fused heterocyclic compound, preparation method therefor, pharmaceutical composition, and uses thereof” (SHANGHAI YINGLI PHARMACEUTICAL CO., LTD., priority 2013, dated 2017).

Experiments:
[1] = biological target: PI3Kδ (Homo sapiens (Human), UniProt O00329); assay: PI3Kδ enzymatic inhibitory activity IC50 assay; format: biochemical; conditions: luminescence readout, 25 μM ATP, 50 μM PIP2, 2 hours at room temperature
Experimental: (§1) 1. Buffer preparation: 50 mM HEPES, pH 7.5, 3 mM MgCl2, 1 mM EGTA, 100 mM NaCl, 0.03% CHAPS.
(§2) 2. The compound was formulated in 100% DMSO in a concentration gradient, and deposited to a 384-well plate with a final DMSO concentration of 1%.
(§3) 3. PI3Kα, PI3Kδ, PI3Kβ and PI3Kγ enzymes (purchased from EMD Millipore) were diluted to the optimal concentration with the following buffer: 50 mM HEPES, pH 7.5, 3 mM MgCl2, 1 mM EGTA, 100 mM NaCl, 0.03% CHAPS, 2 mM DTT, transferred to a 384-well plate and incubated with the compound for a certain time.
(§4) 4. The substrate was diluted to an optimal concentration with the following buffer: 50 mM HEPES, pH 7.5, 3 mM MgCl2, 1 mM EGTA, 100 mM NaCl, 0.03% CHAPS, 2 mM DTT, 50 μM PIP2, 25 μM ATP and added to the 384-well plate to initiate the reaction. PI3Kα, PI3Kβ and PI3Kγ were allowed to react for 1 h at room temperature, and PI3Kδ reacted for 2 hours at room temperature. Another 10 μL ADP-Glo Detection Reagent also needed to be added for PI3Kβ and PI3Kγ, and then equilibrated at room temperature for 30 minutes.
(§5) 5. Luminescence was read by using Flexstation, and the inhibition rate was calculated as the average value of two tests.

[2] = biological target: PI3Kα (Homo sapiens (Human), UniProt P42336); assay: PI3Kα enzymatic inhibitory activity IC50 assay; format: biochemical; conditions: selectivity ratio
Chain of PI3Kα (P42336 whole entry, species assumed): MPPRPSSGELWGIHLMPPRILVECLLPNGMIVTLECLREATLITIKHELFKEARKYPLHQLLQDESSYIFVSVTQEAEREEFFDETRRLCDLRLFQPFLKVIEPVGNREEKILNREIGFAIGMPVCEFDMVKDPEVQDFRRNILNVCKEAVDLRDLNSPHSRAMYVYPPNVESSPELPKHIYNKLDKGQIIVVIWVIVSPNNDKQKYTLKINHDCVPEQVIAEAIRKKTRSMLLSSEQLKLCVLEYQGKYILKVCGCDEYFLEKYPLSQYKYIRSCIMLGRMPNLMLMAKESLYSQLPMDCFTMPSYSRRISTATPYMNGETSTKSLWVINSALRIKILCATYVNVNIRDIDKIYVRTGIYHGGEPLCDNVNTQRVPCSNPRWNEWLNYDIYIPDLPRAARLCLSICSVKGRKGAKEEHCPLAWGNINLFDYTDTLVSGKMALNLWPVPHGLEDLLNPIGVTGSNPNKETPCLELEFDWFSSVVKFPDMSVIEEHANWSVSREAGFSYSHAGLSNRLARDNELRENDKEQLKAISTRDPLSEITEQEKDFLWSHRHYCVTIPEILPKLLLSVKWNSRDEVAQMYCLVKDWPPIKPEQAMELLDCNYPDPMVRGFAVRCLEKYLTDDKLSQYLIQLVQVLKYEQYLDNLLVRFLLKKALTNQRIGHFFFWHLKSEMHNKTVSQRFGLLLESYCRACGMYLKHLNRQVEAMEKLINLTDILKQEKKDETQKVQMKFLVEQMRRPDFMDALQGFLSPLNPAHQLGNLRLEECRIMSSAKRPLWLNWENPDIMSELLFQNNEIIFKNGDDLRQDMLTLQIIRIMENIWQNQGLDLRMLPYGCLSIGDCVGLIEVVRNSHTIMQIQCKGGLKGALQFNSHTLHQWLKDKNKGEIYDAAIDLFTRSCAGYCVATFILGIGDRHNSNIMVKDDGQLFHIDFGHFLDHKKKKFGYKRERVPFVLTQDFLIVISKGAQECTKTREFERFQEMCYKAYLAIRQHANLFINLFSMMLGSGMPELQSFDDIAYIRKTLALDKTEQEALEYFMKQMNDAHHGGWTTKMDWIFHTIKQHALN
Chain of PI3Kα (P27986 whole entry partner, species assumed): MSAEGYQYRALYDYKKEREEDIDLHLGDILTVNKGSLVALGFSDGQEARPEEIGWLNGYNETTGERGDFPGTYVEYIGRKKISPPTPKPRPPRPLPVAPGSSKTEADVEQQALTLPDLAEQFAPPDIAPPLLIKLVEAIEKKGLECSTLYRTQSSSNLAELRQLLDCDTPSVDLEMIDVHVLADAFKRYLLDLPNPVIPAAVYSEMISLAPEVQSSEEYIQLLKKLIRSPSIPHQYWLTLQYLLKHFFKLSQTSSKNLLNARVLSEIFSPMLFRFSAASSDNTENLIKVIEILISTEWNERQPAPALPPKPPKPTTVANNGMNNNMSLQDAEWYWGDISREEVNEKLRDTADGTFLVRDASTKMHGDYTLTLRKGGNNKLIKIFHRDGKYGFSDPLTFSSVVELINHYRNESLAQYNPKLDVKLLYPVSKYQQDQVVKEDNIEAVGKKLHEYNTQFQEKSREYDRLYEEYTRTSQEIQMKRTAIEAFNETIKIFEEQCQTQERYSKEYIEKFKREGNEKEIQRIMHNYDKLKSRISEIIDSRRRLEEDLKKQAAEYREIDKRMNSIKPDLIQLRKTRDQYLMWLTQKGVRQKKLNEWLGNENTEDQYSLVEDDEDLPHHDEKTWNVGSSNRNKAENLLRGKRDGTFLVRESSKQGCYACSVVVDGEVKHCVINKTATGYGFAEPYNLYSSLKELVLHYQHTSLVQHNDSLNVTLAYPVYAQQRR
Experimental: as §1, §2, §3, §4, §5

[3] = biological target: PI3Kβ (Homo sapiens (Human), UniProt P42338); assay: PI3Kβ enzymatic inhibitory activity IC50 assay; format: biochemical; conditions: selectivity ratio
Chain of PI3Kβ (P42338 whole entry, species assumed): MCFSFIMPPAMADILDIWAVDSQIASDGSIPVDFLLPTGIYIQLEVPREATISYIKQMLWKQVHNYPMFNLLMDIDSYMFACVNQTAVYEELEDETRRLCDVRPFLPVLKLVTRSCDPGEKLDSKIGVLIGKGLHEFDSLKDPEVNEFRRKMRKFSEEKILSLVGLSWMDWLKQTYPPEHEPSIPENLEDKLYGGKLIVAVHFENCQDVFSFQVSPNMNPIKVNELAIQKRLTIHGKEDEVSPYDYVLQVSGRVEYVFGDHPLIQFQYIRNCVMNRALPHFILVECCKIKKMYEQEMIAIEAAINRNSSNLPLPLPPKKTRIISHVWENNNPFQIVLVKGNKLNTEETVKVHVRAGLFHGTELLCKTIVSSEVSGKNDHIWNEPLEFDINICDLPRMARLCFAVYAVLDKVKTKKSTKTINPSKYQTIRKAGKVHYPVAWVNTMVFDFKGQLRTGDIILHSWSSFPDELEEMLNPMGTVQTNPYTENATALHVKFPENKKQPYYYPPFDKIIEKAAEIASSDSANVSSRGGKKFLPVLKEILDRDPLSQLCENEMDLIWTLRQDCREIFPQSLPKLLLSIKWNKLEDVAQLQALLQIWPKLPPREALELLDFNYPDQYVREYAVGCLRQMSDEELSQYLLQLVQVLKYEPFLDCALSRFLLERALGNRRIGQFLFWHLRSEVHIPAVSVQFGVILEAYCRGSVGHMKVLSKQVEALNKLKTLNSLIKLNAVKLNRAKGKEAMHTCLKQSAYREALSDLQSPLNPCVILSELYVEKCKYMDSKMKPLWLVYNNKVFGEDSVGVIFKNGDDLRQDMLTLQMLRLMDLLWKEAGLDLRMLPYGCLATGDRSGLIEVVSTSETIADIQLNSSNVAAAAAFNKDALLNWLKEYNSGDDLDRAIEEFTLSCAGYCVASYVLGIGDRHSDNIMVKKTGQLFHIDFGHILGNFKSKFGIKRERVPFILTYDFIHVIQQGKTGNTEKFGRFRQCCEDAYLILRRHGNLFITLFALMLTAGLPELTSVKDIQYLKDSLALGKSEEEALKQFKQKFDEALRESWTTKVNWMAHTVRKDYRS
Chain of PI3Kβ (P27986 whole entry partner, species assumed): as the sequence (P27986 whole entry partner, species assumed) above
Experimental: as §1, §2, §3, §4, §5

[4] = biological target: PI3Kγ (Homo sapiens (Human), UniProt P48736); assay: PI3Kγ enzymatic inhibitory activity IC50 assay; format: biochemical; conditions: selectivity ratio
Chain of PI3Kγ (P48736 whole entry, species assumed): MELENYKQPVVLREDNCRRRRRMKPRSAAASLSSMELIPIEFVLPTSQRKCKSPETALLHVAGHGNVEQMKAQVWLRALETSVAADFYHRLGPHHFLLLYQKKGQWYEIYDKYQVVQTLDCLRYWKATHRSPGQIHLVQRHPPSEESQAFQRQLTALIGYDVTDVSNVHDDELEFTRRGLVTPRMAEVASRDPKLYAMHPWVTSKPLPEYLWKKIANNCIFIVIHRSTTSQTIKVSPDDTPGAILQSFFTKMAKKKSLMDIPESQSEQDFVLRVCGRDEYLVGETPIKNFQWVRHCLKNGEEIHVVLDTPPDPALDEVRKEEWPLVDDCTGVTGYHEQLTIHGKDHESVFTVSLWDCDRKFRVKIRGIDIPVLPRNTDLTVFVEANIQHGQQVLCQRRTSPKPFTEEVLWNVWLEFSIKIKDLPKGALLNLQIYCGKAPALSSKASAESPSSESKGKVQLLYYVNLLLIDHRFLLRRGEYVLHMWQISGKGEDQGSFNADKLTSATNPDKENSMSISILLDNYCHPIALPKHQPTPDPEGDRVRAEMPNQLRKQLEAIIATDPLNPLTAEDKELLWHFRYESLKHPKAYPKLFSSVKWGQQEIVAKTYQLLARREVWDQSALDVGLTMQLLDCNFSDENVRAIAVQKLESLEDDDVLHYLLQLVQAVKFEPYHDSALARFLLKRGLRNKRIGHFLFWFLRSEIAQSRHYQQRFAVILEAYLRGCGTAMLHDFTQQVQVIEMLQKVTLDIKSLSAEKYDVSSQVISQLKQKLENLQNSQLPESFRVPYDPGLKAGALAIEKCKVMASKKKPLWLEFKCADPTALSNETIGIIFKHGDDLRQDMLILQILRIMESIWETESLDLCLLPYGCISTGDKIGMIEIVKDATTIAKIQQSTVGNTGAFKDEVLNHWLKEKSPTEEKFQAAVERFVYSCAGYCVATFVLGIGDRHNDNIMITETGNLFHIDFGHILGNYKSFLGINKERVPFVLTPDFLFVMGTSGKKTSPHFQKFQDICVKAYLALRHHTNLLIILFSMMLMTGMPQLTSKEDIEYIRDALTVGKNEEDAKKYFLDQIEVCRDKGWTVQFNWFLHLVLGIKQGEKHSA
Experimental: as §1, §2, §3, §4, §5

[5] = system: Raji cell TNF-α generation; assay: Inhibition of human Raji cell TNF-α generation induced by human IgM (ELISA); format: cell-based; conditions: Raji cells, IgM stimulation, 24 hours
Experimental: 1. Raji cell line (human Burkitt's lymphoma origin) (ATCC, Cat#CCL-86) was used.
2. Raji cells were applied onto the 96-well plate with 1×10^5/well.
3. The compounds to be screened were diluted to the corresponding test concentration, and added to the cell culture system 30 minutes prior to IgM stimulation.
4. 10 µg/ml IgM monoclonal antibody (JACKSON, Cat#109-006-129) was added to the cell culture system in order to stimulate the cells generating TNF-α.
5. After 24 hours, the amount of TNF-α produced by the cell line was determined by ELISA.
6. The inhibition rates at each concentration of the compound were calculated and plotted to calculate 50% inhibition rate (IC50), and the specific results were shown in table 3.

Chain of PI3Kδ (O00329 whole entry, species assumed): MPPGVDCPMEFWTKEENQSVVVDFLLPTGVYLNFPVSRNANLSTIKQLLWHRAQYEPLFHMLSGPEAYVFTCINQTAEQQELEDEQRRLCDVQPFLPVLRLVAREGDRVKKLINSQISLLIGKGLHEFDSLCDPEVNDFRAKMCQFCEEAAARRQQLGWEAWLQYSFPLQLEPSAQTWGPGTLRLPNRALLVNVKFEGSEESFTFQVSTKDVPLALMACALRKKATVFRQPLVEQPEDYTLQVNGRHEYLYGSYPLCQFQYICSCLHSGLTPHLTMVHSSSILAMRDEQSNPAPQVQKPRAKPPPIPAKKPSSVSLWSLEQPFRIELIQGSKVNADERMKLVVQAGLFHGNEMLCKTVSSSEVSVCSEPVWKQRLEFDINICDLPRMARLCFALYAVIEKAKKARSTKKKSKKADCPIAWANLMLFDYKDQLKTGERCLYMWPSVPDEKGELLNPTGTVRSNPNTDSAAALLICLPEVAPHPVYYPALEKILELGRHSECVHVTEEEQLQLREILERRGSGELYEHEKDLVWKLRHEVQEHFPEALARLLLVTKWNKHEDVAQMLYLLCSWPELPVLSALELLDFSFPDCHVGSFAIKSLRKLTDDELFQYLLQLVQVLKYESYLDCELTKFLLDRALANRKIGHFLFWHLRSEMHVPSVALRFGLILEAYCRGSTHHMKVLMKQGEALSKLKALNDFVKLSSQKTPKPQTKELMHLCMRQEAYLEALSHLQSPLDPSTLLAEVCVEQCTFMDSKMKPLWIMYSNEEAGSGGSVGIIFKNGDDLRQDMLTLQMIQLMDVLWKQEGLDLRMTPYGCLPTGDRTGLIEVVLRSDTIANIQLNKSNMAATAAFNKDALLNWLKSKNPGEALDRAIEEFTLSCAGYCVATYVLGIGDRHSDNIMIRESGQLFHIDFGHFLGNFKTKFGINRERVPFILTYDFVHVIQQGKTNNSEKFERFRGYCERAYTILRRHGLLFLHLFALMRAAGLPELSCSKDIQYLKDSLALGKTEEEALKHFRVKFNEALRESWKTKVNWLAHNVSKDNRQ
Chain of PI3Kδ (P27986 whole entry partner, species assumed): as the sequence (P27986 whole entry partner, species assumed) above

COc1ncc(-c2nc(N3CCOCC3)nc3c(OC4CCC(N5CCCCC5)CC4)cc(F)cc23)cc1NS(C)(=O)=O (centres unmarked) [Compound 36]
IC50 [1]: 17 nM | α/δ (ratio of IC50 values against PI3Kα to PI3Kδ) [2]: 239 | β/δ (ratio of IC50 values against PI3Kβ to PI3Kδ) [3]: 366 | γ/δ (ratio of IC50 values against PI3Kγ to PI3Kδ) [4]: >588 | IC50 [5]: 27 nM
